Test results from patent EP4786486A1, “PEPTIDES FOR TREATING CARDIAC DISEASES” (Universidad Complutense De Madrid, priority 2023, dated 2025).
Where no end group is shown, it is not given here.

Assays:
human Nav1.5 channels [1] = biological target: T1, human Nav1.5 channels (Homo sapiens, UniProt Q14524); assay: INa density, whole-cell patch-clamp in CHO cells co-transfected with Nav1.5 and the cDNA encoding the peptide; assay type: cell-based; conditions: vs. cells transfected only with Nav1.5 channels, various membrane potentials, P<0.05
T1 construct: expressed in transfected cells; host or cells: CHO (Chinese hamster ovary) cells
Procedure: (§1) To analyse the effect of the peptides designed in example 1 on INa and IK1, the cDNA that encodes SEQ ID NO: 3 or SEQ ID NO: 4, described in SEQ ID NO: 5 and 20, respectively, was cloned into a pcDNA3.1^(+)® vector (Invitrogen) for transfection of Chinese hamster ovary (CHO) cells that were in turn transfected with the cDNA that encodes the human Nav1.5 channels (SEQ ID NO: 21). The CHO cells were further co-transfected with the EBO-pcD leu 2 vector (0.5 µg), which encodes the expression of the CD8 surface antigen. The subsequent addition of anti-CD8 antibody, bonded to Dynabeads M450® microspheres, allowed the cells that had been transfected to be identified. […] The currents were recorded at 20-22°C using an Axopatch 200B amplifier, filtered at half the sampling frequency and stored in a computer for further analysis. […] The capacitive current artefacts generated after the application of pulses from 0 mV to +10 mV were recorded at 50 kHz (filtered at 10 kHz) to calculate the capacitance of the cell, the access resistance and the input impedance. […] INa was recorded by applying 50 ms pulses from a holding potential of -120 mV to potentials between -80 and +50 mV in 5 mV increments. […]

[2] = system: human iPSC-derived cardiomyocytes; assay: IK1 density in hiPSC-CM infected with AAV9 encoding the peptide, patch-clamp; assay type: cell-based; conditions: hiPSC-CM infected 48 hours with AAV9 encoding DECA-11; vs. Ad-td-Tomato infected cardiomyocytes; P<0.05
[3] = system: minimal promoter of the human SCN5A gene; assay: Luciferase promoter assay in hEK-293 cells, SCN5A; assay type: cell-based; conditions: hEK-293 cells co-transfected with cDNA SEQ ID NO: 5; 48 hours after transfection
Procedure: 48 hours after transfection, luciferase assays were performed using the LightSwitch Luciferase Assay reagent, also from Active Motif, and a Berthold luminometer. All assays were performed in triplicate and each point represents the mean of each technical triplicate.

[4] = system: human iPSC-derived cardiomyocytes; conditions: hiPSC-CM; sustained current sensitive to TTX (10 µM), as percentage of the current peak; 500 ms pulses from -120 to -45 mV
human Nav1.5 channels [5] = assay: Density of INa by whole-cell patch-clamp in CHO cells co-transfected with the cDNA encoding the peptide; assay type: cell-based; conditions: CHO cells expressing Nav1.5 plus cDNA of the peptide, vs cells transfected only with Nav1.5 channels
Procedure: as §1

T1 sequence (Q14524 1-2015 isoform Q14524-2): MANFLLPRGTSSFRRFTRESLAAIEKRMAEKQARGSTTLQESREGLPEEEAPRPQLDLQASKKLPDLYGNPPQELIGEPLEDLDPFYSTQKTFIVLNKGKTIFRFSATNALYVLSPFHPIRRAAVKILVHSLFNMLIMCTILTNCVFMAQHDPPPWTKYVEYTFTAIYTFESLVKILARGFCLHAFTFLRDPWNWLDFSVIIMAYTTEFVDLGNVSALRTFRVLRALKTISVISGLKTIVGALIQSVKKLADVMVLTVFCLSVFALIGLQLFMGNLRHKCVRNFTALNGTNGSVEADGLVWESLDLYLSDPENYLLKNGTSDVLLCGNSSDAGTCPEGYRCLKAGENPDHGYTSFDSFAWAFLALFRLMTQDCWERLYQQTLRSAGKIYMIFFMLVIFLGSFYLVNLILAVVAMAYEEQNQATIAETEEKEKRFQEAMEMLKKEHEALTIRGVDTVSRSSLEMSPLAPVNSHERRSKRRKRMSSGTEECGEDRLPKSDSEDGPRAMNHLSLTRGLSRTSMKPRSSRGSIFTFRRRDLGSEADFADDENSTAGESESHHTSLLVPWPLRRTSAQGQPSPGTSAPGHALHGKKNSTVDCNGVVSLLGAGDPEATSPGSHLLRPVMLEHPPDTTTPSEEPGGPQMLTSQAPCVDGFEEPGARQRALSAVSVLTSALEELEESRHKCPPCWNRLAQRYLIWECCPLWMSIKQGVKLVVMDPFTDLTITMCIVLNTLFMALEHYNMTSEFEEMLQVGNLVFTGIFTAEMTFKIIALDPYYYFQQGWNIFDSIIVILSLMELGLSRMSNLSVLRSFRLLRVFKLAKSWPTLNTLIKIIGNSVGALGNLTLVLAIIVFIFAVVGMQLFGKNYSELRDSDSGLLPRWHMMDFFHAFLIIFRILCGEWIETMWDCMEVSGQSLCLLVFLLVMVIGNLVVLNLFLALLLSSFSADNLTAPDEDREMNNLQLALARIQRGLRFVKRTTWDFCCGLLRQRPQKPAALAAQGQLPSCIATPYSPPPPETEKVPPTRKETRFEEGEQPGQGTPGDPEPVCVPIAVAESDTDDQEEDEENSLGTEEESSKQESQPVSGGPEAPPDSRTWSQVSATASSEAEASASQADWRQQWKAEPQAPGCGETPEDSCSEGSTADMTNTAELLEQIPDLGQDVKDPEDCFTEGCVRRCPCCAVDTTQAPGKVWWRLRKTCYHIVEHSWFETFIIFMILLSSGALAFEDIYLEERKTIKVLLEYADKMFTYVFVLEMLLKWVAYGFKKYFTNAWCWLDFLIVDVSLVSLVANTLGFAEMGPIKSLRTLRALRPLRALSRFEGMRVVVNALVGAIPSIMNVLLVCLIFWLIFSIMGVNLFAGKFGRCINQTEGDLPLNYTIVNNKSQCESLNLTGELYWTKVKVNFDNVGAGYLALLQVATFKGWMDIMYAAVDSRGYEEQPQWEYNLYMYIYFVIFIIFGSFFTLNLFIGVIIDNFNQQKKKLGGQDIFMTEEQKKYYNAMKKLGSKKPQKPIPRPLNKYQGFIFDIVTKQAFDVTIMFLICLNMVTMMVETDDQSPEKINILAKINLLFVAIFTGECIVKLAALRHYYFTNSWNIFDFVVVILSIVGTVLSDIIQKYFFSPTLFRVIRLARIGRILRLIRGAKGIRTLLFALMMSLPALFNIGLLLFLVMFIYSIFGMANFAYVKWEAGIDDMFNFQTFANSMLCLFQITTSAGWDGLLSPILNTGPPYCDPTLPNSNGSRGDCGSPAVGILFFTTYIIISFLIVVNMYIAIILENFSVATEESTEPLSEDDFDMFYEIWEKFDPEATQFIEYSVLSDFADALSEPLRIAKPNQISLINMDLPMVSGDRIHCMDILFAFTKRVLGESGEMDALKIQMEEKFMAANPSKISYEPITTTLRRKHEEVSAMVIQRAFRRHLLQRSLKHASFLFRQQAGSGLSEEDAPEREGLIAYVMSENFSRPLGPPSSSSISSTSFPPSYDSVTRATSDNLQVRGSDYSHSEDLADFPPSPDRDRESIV

Question: How did the “density of INa” value (human Nav1.5 channels [1]) turn out when “RFTRESLAAIE (listed as Homo sapiens) [SEQ ID NO: 3]” was run?
Answer: The value was “significantly increase”.

Question: And the “density of IK1” value [2]?
Answer: The value was “significantly increase”.

Question: And the “effect on the minimal promoter of the human SCN5A gene (luciferase)” value [3]?
Answer: The value was “no significant effect”.

Question: What about the INaL [4] of the same sequence?
Answer: Its INaL is “does not increase”.

Question: RFTRESLAAIE [DECA-11, RFTRESLAAIE] was tested. Which “density of INa” value (human Nav1.5 channels [5]) did it give?
Answer: The value was “significantly increase the density of INa”.
